Assay results published in patent US5776943A, “Rapamycin metabolites” (American Home Products Corporation, priority 1991, dated 1998).
Like-named read-outs stand apart in the source and are kept apart here.

System: Human lymphocytes
Assay: PHA-stimulated human lymphocyte proliferation (3H-thymidine incorporation)
Assay type: cell-based
Protocol: Immunosuppressive activity of the collected fractions was evaluated in an in vitro standard pharmacological test procedure designed to measure lymphocyte proliferation. The procedure used is briefly described below.
Human lymphocytes were isolated from blood anticoagulated with heparin. Blood was centrifuged with ficoll at 545 g at room temperature for 20 min. The lymphocyte layer was washed with phosphate buffered saline by centrifugation at 280 g for 10 min and subsequently with the culture medium (430 g, 10 min). The cells were adjusted to a concentration of 10^6 cells/mL with RPMI 1640 medium supplemented with 2 mM glutamine, 100 U/mL penicillin, 100 μg streptomycin and 10% fetal calf serum. For each fraction evaluated, the 1 g/L solution in methanol was diluted with culture medium to provide a concentration of 1 mg/L. The concentration of metabolite in each fraction was determined by HPLC comparison with an external rapamycin standard curve. A solution composed of 100 μL of the cell suspension, containing 5 mg/L PHA, and 100 μL of the metabolite solution were pipetted into the wells of a 96-well plate. The cells were incubated for 44 h at 37° C. in a 5% CO2 atmosphere. After addition of 1 μCi ^3 H-thymidine/well the cells were incubated for additional 4.5 h. […] The thawed cells were harvested and ^3 H-thymidine incorporation was determined by liquid scintillation counting.

Q: How did the IC50 (lymphocyte proliferation, human lymphocytes from heparin blood, PHA, incubated 44 h at 37° C., then 3H-thymidine 4.5 h, read-out: IC50) turn out when `CO[C@H]1C[C@@H]2CC[C@@H](C)[C@@](O)(O2)C(=O)C(=O)N2CCCC[C@H]2C(=O)O[C@H]([C@H](C)C[C@@H]2CC[C@@H](O)[C@H](O)C2)CC(=O)[C@H](C)/C=C(\C)[C@@H](O)[C@@H](OC)C(=O)[C@H](C)C[C@H](C)/C=C/C=C/C=C/1C` [Example 1, 41-O-Desmethyl rapamycin] was run?
A: 1 nM

Q: `CO[C@H]1C[C@@H]2CC[C@@H](C)[C@@](O)(O2)C(=O)C(=O)N2CCCC[C@H]2C(=O)O[C@H]([C@H](C)C[C@@H]2CC[C@@H](O)[C@H](OC)C2)CC(=O)[C@H](C)/C=C(\C)[C@@H](O)[C@@H](OC)C(=O)[C@H](C)C[C@H](C)/C=C/C=C/C=C/1C` [Rapamycin, rapamycin] was tested. Which IC50 (Homo sapiens, Lymphocyte) did it give?
A: 0.1 nM
